Like-named read-outs stand apart in the source and are kept apart here.
Key:
[1] = system: hypoxia-ischemia induced cerebral palsy; settings: cited from earlier work; for fetal brain NOS activity in vivo / toxicity / cardiovascular effects / distribution to fetal brain / eNOS regulated blood pressure: rabbit; for hypoxia-ischemia induced deaths / number of newborn kits exhibiting symptoms of cerebral palsy: rabbit model for cerebral palsy
rat nNOS = rat nNOS (Rattus norvegicus, UniProt P29476); settings: comparing 27 with 16
[2] = following maternal administration

Row | drop in nNOS inhibitory potency (rat nNOS) | SMILES | fetal brain NOS activity in vivo [1, 2] | toxicity [1, 2] | hypoxia-ischemia induced deaths [1] | number of newborn kits exhibiting symptoms of cerebral palsy [1] | cardiovascular effects ([1]; in vivo) | distribution to fetal brain ([1]; in vivo) | eNOS regulated blood pressure ([1]; in vivo) | toxicity ([1]; in vivo)
1 | – | Cc1cc(N)nc(C[C@H]2CNC[C@H]2NCCNCc2ccc(Cl)cc2)c1.Cl [compound 16] | inhibit fetal brain NOS activity in vivo | non-toxic | prevent hypoxia-ischemia induced deaths | reduce the number of newborn kits exhibiting symptoms of cerebral palsy | without cardiovascular effects | distribute to fetal brain | without affecting the eNOS regulated blood pressure | –
2 | more than 200 fold | Cc1cc(C[C@H]2CNC[C@H]2NCCNCc2ccc(Cl)cc2)cc(N)n1.Cl (racemic) [compound 27, N^1-{(±)-4′-[(2”-amino-6”-methylpyridin-4”-yl)methyl]pyrrolidin-3′-yl}-N^2-(4′-chlorobenzyl)ethane-1,2-diamine tetrahydrochloride] | – | – | – | – | – | – | – | –
3 | – | Cc1cc(N)nc(C[C@H]2CNC[C@H]2NCCNCCc2cccc(F)c2)c1 [compound 26] | inhibit fetal brain NOS activity in vivo | – | prevent hypoxia-ischemia induced deaths | reduce the number of newborn kits exhibiting symptoms of cerebral palsy | without cardiovascular effects | distribute to fetal brain | without affecting the eNOS regulated blood pressure | non-toxic
